Laboratory results as given in the supplement of paper PMC10290057.
Counter-ions that a name gives are not always drawn.

The molecules below were run on HCT116 (assay: efficacy (fitted maximal change in viability relative to DMSO control); higher = less cytotoxic (negative = loss of viability)). Settings: 48 h.
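Also: Luminescence-based viability readout, five doses per compound, normalized against on-plate DMSO and empty-well controls, followed by dose-response curve fitting for every drug.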

First: COC1=CC=C(C=C1)C/2=C(OC3O[C@@H](C)[C@H](O)[C@@H](O)[C@H]3O)/C(=O)C4=C(O2)C(=C(OC5O[C@H](CO)[C@@H](O)[C@H](O)[C@H]5O)C=C4O)CC=C(C)C (stereo partly drawn) [Icariin]
Second: COC1=CC=C(C=C1)/C2=C(O)/C(=O)C3=C(O)C=C(O)C(=C3O2)CC=C(C)C [Icaritin]
The efficacy of the first is lower: -27.5% for the first, -16.5% for the second.

Compared with `C#Cc1cccc(Nc2ncnc3cc4c(cc23)OCCOCCOCCO4)c1` [Icotinib hydrochloride], `CC(N[C@H]1C[C@@H]1c1ccccc1)c1ccc2c(c1)OCCO2` (stereo partly drawn) [LSD1-C76] is higher in efficacy: -36% for the first, -23.9% for the second.

Compared with `CC[C@H](NC1=C2N=C[NH]C2=NC=N1)C/3=N/C4=C(C(=CC=C4)F)C(=O)N3C5=CC=CC=C5` [Idelalisib], `Cc1c(OCC(F)(F)F)ccnc1C[S+]([O-])c1nc2ccccc2[nH]1` (stereo not drawn) [Lansoprazole] is higher in efficacy: -25.3% for the first, -18.3% for the second.

Going from `C[S+]([O-])(=O)NC1=CC2=C(C=C1OC3=CC=CC=C3)C(=O)\C(=C/O2)NC=O` [Iguratimod] to `CC(C)Oc1ccc2c(=O)c(-c3ccccc3)coc2c1` [Ipriflavone], the efficacy falls from -14.8% to -27.7%.

Going from `CNC(=O)[C@H](Cc1c[nH]c2ccccc12)NC(=O)[C@@H](CC(=O)NO)CC(C)C` [Ilomastat (GM6001, Galardin)] to `COC[C@@H](NC(C)=O)C(=O)NCc1ccccc1` [Lacosamide], the efficacy falls from -7.39% to -14.4%.

Going from `C[C@@H]\1/N=C(/N)NC(=N1)\N(C)C` [Imeglimin] to `CCOC(=O)c1ccnc(CNCC(=O)N(CC)CCN(C)C)c1` [KDM5-C70], the efficacy rises from -5.96% to 11.1%.

Compared with `CC(C)Cn1cnc2c(N)nc3ccccc3c21` [Imiquimod], `Cn1cc(C[C@@H](N)C(=O)O)c2ccccc21` [Indoximod] is higher in efficacy: -14.9% for the first, -9.77% for the second.

First: CC1Cc2ccccc2N1NC(=O)c1ccc(Cl)c([S+](N)(=O)[O-])c1 (stereo not drawn) [Indapamide]
Second: C[S+](=O)([O-])c1cc(F)cc2c3c(n(Cc4ccc(Cl)cc4)c12)[C@@H](CC(=O)O)CC3 [Laropiprant]
The efficacy of the first is higher: -9.36% for the first, -18.4% for the second.

Going from `O=C1Nc2ccccc2/C1=C1\Nc2ccccc2C1=O` [Indirubin] to `CN1CCC(=C2c3ccccc3CC(=O)c3sccc32)CC1` [Ketotifen], the efficacy falls from -9.8% to -39.1%.

Compared with `C/C=C(/C)C(=O)O[C@H]1C(C)=CC23C(=O)C(C=C(CO)[C@@H](O)[C@]12O)[C@H]1[C@@H](C[C@H]3C)C1(C)C` (stereo partly drawn) [Ingenol mebutate], `CC1=C(/C=C/C(C)=C/C=C/C(C)=C\C(=O)O)C(C)(C)CCC1` [Isotretinoin] is higher in efficacy: -63.6% for the first, -13.5% for the second.

First: NC(=O)c1ccc(I)c([N+](=O)[O-])c1 [Iniparib]
Second: NC(=O)c1cccc(-c2cccc(OC(=O)NC3CCCCC3)c2)c1 [KDS-4103]
The efficacy of the first is higher: -14.6% for the first, -18% for the second.

First: Cc1csc(NC(=O)c2sc3nc4c(c(C(F)(F)F)c3c2N)CCC4)n1 [Irestatin 9389]
Second: CCOc1ccc(Nc2nc(-c3c(C)nc4ccccn34)cs2)cc1 [JK-184]
The efficacy of the first is higher: -42% for the first, -56.2% for the second.

Going from `N[S+]([O-])(=O)OC1=CC=C2\C3=C(CCCCC3)/C(=O)OC2=C1` [Irosustat (STX-64)] to `Nc1cccc2c1CN([C@H]1CCC(=O)NC1=O)C2=O` [Lenalidomide], the efficacy rises from -30.6% to -14%.

Going from `CN[C@@H]1[C@@H](O)[C@@H](O[C@@H]2[C@@H](O)[C@H](O[C@H]3O[C@H](CN)[C@@H](O)[C@H](O)[C@H]3O)[C@@H](N)C[C@H]2NC(=O)C(O)CN)OC[C@]1(C)O.O=S(=O)(O)O` (stereo partly drawn) [Isepamicin sulfate] to `CN[C@@H](C)C(=O)N[C@H](C(=O)N1CCC[C@H]1c1nc(C(=O)c2ccc(F)cc2)cs1)C1CCCCC1` [LCL-161], the efficacy falls from -15.7% to -23.8%.

First: O=C(/C=C/c1ccc(O)cc1)c1ccc(O)cc1O [Isoliquiritigenin]
Second: OC1=CC=C(C=C1)\C2=C(O)\C(=O)C3=C(O2)C=C(O)C=C3O [Kaempferol]
The efficacy of the first is lower: -62% for the first, 12.7% for the second.

Going from `CC(C)NCC(O)c1ccc(O)c(O)c1` (stereo not drawn) [Isoprenaline hydrochloride] to `C/C(O)=C(\C#N)C(=O)Nc1cc(Br)ccc1Br` [LFM-A13], the efficacy rises from -16.7% to -11.7%.

Compared with `CCn1c(=O)c2c(nc(/C=C/c3ccc(OC)c(OC)c3)n2C)n(CC)c1=O` [Istradefylline], `CCCNC(=O)Nc1ccc(Oc2ncnc3cc(OC)c(OC)cc23)cc1Cl` [KRN-633] is lower in efficacy: -9.26% for the first, -12.8% for the second.

First: N#CCC1(n2cc(-c3ncnc4[nH]ccc34)cn2)CN(C2CCN(C(=O)c3ccnc(C(F)(F)F)c3F)CC2)C1 [Itacitinib]
Second: COc1cc(SC)ccc1C(=O)N1CCC(Cc2ccccc2)CC1 [JX-401]
The efficacy of the first is higher: -26.4% for the first, -43.4% for the second.

First: CCC(C)N1\N=C/N(C1=O)C2=CC=C(C=C2)N3CCN(CC3)C4=CC=C(OC[C@H]5CO[C@@](C[N]6C=NC=N6)(O5)C7=CC=C(Cl)C=C7Cl)C=C4 (stereo partly drawn) [Itraconazole]
Second: CN(C(Cc1ccc(OS(=O)(=O)c2cccc3cnccc23)cc1)C(=O)N1CCN(c2ccccc2)CC1)S(=O)(=O)c1cccc2cnccc12 (stereo not drawn) [KN-62]
The efficacy of the first is lower: -32.6% for the first, -21.2% for the second.

First: COc1cc2c(cc1OC)CC(=O)N(CCCN(C)C[C@H]1Cc3cc(OC)c(OC)cc31)CC2 [Ivabradine hydrochloride]
Second: COc1cc([C@@H](CC(=O)O)c2ccc(C)c(CN3C[C@@H](C)Oc4ccccc4[S+]3(=O)[O-])c2)cc2nnn(C)c12 [KI-696]
The efficacy of the first is higher: -21.3% for the first, -21.8% for the second.

First: CC(=O)OCCN1C(=O)c2c(C)nc3ccc([S+](=O)([O-])N4CCOCC4)cc3c2C1=O [Ivachtin]
Second: C=CC(=O)Nc1ccc(F)c(-c2ncnc3[nH]cc(C(=O)OCC)c23)c1 [JAK3i]
The efficacy of the first is higher: -16.7% for the first, -66% for the second.

Going from `N#Cc1ccnc(N2C(=O)CC[C@H]2C(=O)N(c2cncc(F)c2)[C@H](C(=O)NC2CC(F)(F)C2)c2ccccc2Cl)c1` [Ivosidenib] to `O=C(c1ccccc1)c1ccc2n1CCC2C(=O)O` (stereo not drawn) [Ketorolac], the efficacy rises from -25.4% to -7.25%.

First: O=C(Oc1ccc([N+](=O)[O-])cc1)N1CCC(C(O)(c2ccc3c(c2)OCO3)c2ccc3c(c2)OCO3)CC1 [JZL-184]
Second: O=C(Oc1ccc([N+](=O)[O-])cc1)N1CCN(Cc2cccc(Oc3ccccc3)c2)CC1 [JZL-195]
The efficacy of the first is higher: 9.17% for the first, -38.1% for the second.

Compared with `CCOC(=O)c1c(/C(C#N)=C\N)c2ccc(Cl)c(Cl)c2n1C` [KH-CB19], `N[C@@H](Cc1cc(I)c(Oc2cc(I)c(O)c(I)c2)c(I)c1)C(=O)O` [L-Thyroxine] is higher in efficacy: -9.36% for the first, -8.54% for the second.

Compared with `C[S+](=O)([O-])N(Cc1ccco1)CC(O)Cn1c2ccccc2c2ccccc21` (stereo not drawn) [KL001], `c1coc(CNc2ncnc3nc[nH]c23)c1` [Kinetin] is lower in efficacy: -21.8% for the first, -22.2% for the second.

First: NCCCC[C@H](NC(=O)[C@@H](NC(=O)[C@H](Cc1c[nH]c2ccccc12)NC(=O)[C@H](CCCCN)NC(=O)[C@H](CCCCN)NC(=O)[C@H](Cc1c[nH]c2ccccc12)NC(=O)[C@H](Cc1c[nH]c2ccccc12)NC(=O)[C@H](CCCCN)NC(=O)[C@@H](N)CCCCN)C(c1ccccc1)c1ccccc1)C(N)=O [LTX-315]
Second: N#Cc1ccc(C(c2ccc(C#N)cc2)n2cncn2)cc1 [Letrozole]
The efficacy of the first is lower: -89.2% for the first, -10.3% for the second.

Molecule `NC\1=N\C(=O)N(\C=C1)[C@@H]2CS[C@H](CO)O2` [Lamivudine] has an efficacy of -6.75%.
